Assay results taken from US8030443B2, “Squamous cell carcinoma antigen-derived peptide binding to HLA-A24 molecule” (Kurume University, priority 2005, dated 2011).

Tested on: peptide-specific IgG in sera of cancer patients and healthy donors
Assay: Measurement of anti-peptide IgG in plasma by LUMINEX multiplexed flow cytometric assay
Type: binding, human
Summary of the method: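 Plasma diluted 1/100 incubated with peptide-coupled colour-coded beads 2 h at RT, then biotinylated goat anti-human IgG (γ-chain) 1 h and streptavidin-PE 30 min; fluorescence read by multiplexed flow cytometry, >100 counted significant. Specificity checked by three rounds of absorption on corresponding versus irrelevant SCCA peptide.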

With “EYLDAIKKF (SCCA 118-126 peptide) [SCCA-derived peptide, position 118-126]” the “Total: healthy donors with significant peptide-reactive IgG / donors tested” value (10 healthy donors, significant when fluorescence intensity exceeded 100 at 1/100 dilution) was 2/10, the “Total: cancer patients with significant peptide-reactive IgG / patients tested” value (71 cancer patients, significant when fluorescence intensity exceeded 100 at 1/100 dilution) was 7/71 and the Fluorescence intesity (serum of Breast Ca. patient #36, 1:100 dilution) was 5. For the same sequence, the Fluorescence intesity (serum of Breast Ca. patient #37, 1:100 dilution) was 23, the Fluorescence intesity (serum of Breast Ca. patient #38, 1:100 dilution) was 1 and the Fluorescence intesity (serum of Breast Ca. patient #39, 1:100 dilution) was 1. For the same sequence, the Fluorescence intesity (serum of Breast Ca. patient #40, 1:100 dilution) was 0, the Fluorescence intesity (serum of Breast Ca. patient #41, 1:100 dilution) was 123 and the Fluorescence intesity (serum of Breast Ca. patient #42, 1:100 dilution) was 14. It also gave a Fluorescence intesity (serum of Breast Ca. patient #43, 1:100 dilution) of 7, a Fluorescence intesity (serum of Breast Ca. patient #44, 1:100 dilution) of 0 and a Fluorescence intesity (serum of Breast Ca. patient #45, 1:100 dilution) of 18. For the same sequence, the Fluorescence intesity (serum of Colon Ca. patient #66, 1:100 dilution) was 2, the Fluorescence intesity (serum of Colon Ca. patient #67, 1:100 dilution) was 0 and the Fluorescence intesity (serum of Colon Ca. patient #68, 1:100 dilution) was 0. The Fluorescence intesity (serum of Colon Ca. patient #69, 1:100 dilution) was 0, the Fluorescence intesity (serum of Colon Ca. patient #70, 1:100 dilution) was 0 and the Fluorescence intesity (serum of Colon Ca. patient #71, 1:100 dilution) was 17. For the same sequence, the Fluorescence intesity (serum of Gastric Ca. patient #56, 1:100 dilution) was 0, the Fluorescence intesity (serum of Gastric Ca. patient #57, 1:100 dilution) was 0 and the Fluorescence intesity (serum of Gastric Ca. patient #58, 1:100 dilution) was 0. The Fluorescence intesity (serum of Gastric Ca. patient #59, 1:100 dilution) was 21, the Fluorescence intesity (serum of Gastric Ca. patient #60, 1:100 dilution) was 0 and the Fluorescence intesity (serum of Gastric Ca. patient #61, 1:100 dilution) was 5. It also gave a Fluorescence intesity (serum of Gastric Ca. patient #62, 1:100 dilution) of 0, a Fluorescence intesity (serum of Gastric Ca. patient #63, 1:100 dilution) of 0 and a Fluorescence intesity (serum of Gastric Ca. patient #64, 1:100 dilution) of 2. It also gave a Fluorescence intesity (serum of Gastric Ca. patient #65, 1:100 dilution) of 0, a Fluorescence intesity (serum of Healthy Donor #1, 1:100 dilution) of 0 and a Fluorescence intesity (serum of Healthy Donor #2, 1:100 dilution) of 47. The Fluorescence intesity (serum of Healthy Donor #3, 1:100 dilution) was 0, the Fluorescence intesity (serum of Healthy Donor #4, 1:100 dilution) was 0 and the Fluorescence intesity (serum of Healthy Donor #5, 1:100 dilution) was 0. It also gave a Fluorescence intesity (serum of Healthy Donor #6, 1:100 dilution) of 0, a Fluorescence intesity (serum of Healthy Donor #7, 1:100 dilution) of 0 and a Fluorescence intesity (serum of Healthy Donor #8, 1:100 dilution) of 324. For the same sequence, the Fluorescence intesity (serum of Healthy Donor #9, 1:100 dilution) was 37, the Fluorescence intesity (serum of Healthy Donor #10, 1:100 dilution) was 0 and the Fluorescence intesity (serum of Pancreas Ca. patient #46, 1:100 dilution) was 0. For the same sequence, the Fluorescence intesity (serum of Pancreas Ca. patient #47, 1:100 dilution) was 0, the Fluorescence intesity (serum of Pancreas Ca. patient #48, 1:100 dilution) was 404 and the Fluorescence intesity (serum of Pancreas Ca. patient #49, 1:100 dilution) was 0. The Fluorescence intesity (serum of Pancreas Ca. patient #50, 1:100 dilution) was 0, the Fluorescence intesity (serum of Pancreas Ca. patient #51, 1:100 dilution) was 0 and the Fluorescence intesity (serum of Pancreas Ca. patient #52, 1:100 dilution) was 79. The Fluorescence intesity (serum of Pancreas Ca. patient #53, 1:100 dilution) was 0, the Fluorescence intesity (serum of Pancreas Ca. patient #54, 1:100 dilution) was 0 and the Fluorescence intesity (serum of Pancreas Ca. patient #55, 1:100 dilution) was 0. It also gave a Fluorescence intesity (serum of Uterine cervical Ca. patient #1, 1:100 dilution) of 0, a Fluorescence intesity (serum of Uterine cervical Ca. patient #2, 1:100 dilution) of 0 and a Fluorescence intesity (serum of Uterine cervical Ca. patient #3, 1:100 dilution) of 0. It also gave a Fluorescence intesity (serum of Uterine cervical Ca. patient #4, 1:100 dilution) of 0, a Fluorescence intesity (serum of Uterine cervical Ca. patient #5, 1:100 dilution) of 0 and a Fluorescence intesity (serum of Uterine cervical Ca. patient #6, 1:100 dilution) of 507. The Fluorescence intesity (serum of Uterine cervical Ca. patient #7, 1:100 dilution) was 11, the Fluorescence intesity (serum of Uterine cervical Ca. patient #8, 1:100 dilution) was 24 and the Fluorescence intesity (serum of Uterine cervical Ca. patient #9, 1:100 dilution) was 82. For the same sequence, the Fluorescence intesity (serum of Uterine cervical Ca. patient #10, 1:100 dilution) was 13, the Fluorescence intesity (serum of Uterine cervical Ca. patient #11, 1:100 dilution) was 20 and the Fluorescence intesity (serum of Uterine cervical Ca. patient #12, 1:100 dilution) was 37. It also gave a Fluorescence intesity (serum of Uterine cervical Ca. patient #13, 1:100 dilution) of 20, a Fluorescence intesity (serum of Uterine cervical Ca. patient #14, 1:100 dilution) of 16 and a Fluorescence intesity (serum of Uterine cervical Ca. patient #15, 1:100 dilution) of 87. For the same sequence, the Fluorescence intesity (serum of Uterine cervical Ca. patient #16, 1:100 dilution) was 179, the Fluorescence intesity (serum of Uterine cervical Ca. patient #17, 1:100 dilution) was 45 and the Fluorescence intesity (serum of Uterine cervical Ca. patient #18, 1:100 dilution) was 42. The Fluorescence intesity (serum of Uterine cervical Ca. patient #19, 1:100 dilution) was 41, the Fluorescence intesity (serum of Uterine cervical Ca. patient #20, 1:100 dilution) was 100 and the Fluorescence intesity (serum of Uterine cervical Ca. patient #21, 1:100 dilution) was 20. The Fluorescence intesity (serum of Uterine cervical Ca. patient #22, 1:100 dilution) was 20, the Fluorescence intesity (serum of Uterine cervical Ca. patient #23, 1:100 dilution) was 44 and the Fluorescence intesity (serum of Uterine cervical Ca. patient #24, 1:100 dilution) was 1169. It also gave a Fluorescence intesity (serum of Uterine cervical Ca. patient #25, 1:100 dilution) of 15, a Fluorescence intesity (serum of Uterine cervical Ca. patient #26, 1:100 dilution) of 106 and a Fluorescence intesity (serum of Uterine cervical Ca. patient #27, 1:100 dilution) of 28. It also gave a Fluorescence intesity (serum of Uterine cervical Ca. patient #28, 1:100 dilution) of 71, a Fluorescence intesity (serum of Uterine cervical Ca. patient #29, 1:100 dilution) of 13 and a Fluorescence intesity (serum of Uterine cervical Ca. patient #30, 1:100 dilution) of 25. The Fluorescence intesity (serum of Uterine cervical Ca. patient #31, 1:100 dilution) was 101, the Fluorescence intesity (serum of Uterine cervical Ca. patient #32, 1:100 dilution) was 16 and the Fluorescence intesity (serum of Uterine cervical Ca. patient #33, 1:100 dilution) was 114. It also gave a Fluorescence intesity (serum of Uterine cervical Ca. patient #34, 1:100 dilution) of 16 and a Fluorescence intesity (serum of Uterine cervical Ca. patient #35, 1:100 dilution) of 19.
